Test results as given in patent US11202833B2, “Methylglyoxal-scavenging cyclic peptides and their use for the prevention and treatment of diseases associated with elevated methylglyoxal levels” (RUPRECHT-KARLS-UNIVERSITÄT HEIDELBERG, priority 2016, dated 2021).
Each block holds one compound with its values, some of them ahead of it. Numbered stars: 1 amine (or outer) side, 2 acyl side, 3 side chain; on linkers, the order of the positions; unused ones are H or OH. Bridge positions count the residues as written; N and C are the ends. Side chains are listed from the residue outwards. Peptide text beside a SMILES is read from it. * marks the point of attachment. ξ: configuration not given here. DOTA = O=C(O)CN1CCN(CC(=O)O)CCN(CC(=O)*)CCN(CC(=O)O)CC1; C16 diacid = O=C(O)CCCCCCCCCCCCCCC(=O)*; ξγGlu = O=C(O)C(CCC(=O)[*:2])N[*:1]; Myristoyl = CCCCCCCCCCCCCC(=O)*

Legend:
[1] = parameters: species or system NMRI mice; settings: mouse, in vivo
Protocol: DOTA coupled peptides were labeled with ^68Ga as described previously (Wischnjow et al., 2016). In short ^68Ga was eluted from the generator into a tube containing 20 nmol of the peptide and 0.5% ascorbic acid in 0.5 M Na-acetate buffer. The mixture was incubated at pH 3.5-4.0 for 10′ at 95° C. while stirring to allow for the ^68Ga-DOTA complex to form. Free ^68Ga was removed using C18 solid phase extraction cartridges (Thermo Scientific, USA) and the product was checked by HPLC (Agilent Technologies, USA) equipped with a radio flow detector. The labeled peptide was injected i.v. into NMRI mice. PET analysis was carried out for 0-1 h and for another 20′ after 2 h while cumulative pictures are shown for 0-20 min, 40-60 min and 120-140 min.
Data was normalized for animal weight and injected dose and pictures and data are given as standardized uptake value [SUV]. For quantitative comparison the area under the curve for the SUV values of the different regions was determined and compared by Student's t-test.

[2] = test system: human serum albumin (HSA); test: Competitive inhibition of HSA MG-H1 formation; format: biochemical; settings: for prevention of HSA-MG-H1 formation: FIG. 2B, HSA with MG and scavenger
Protocol: In short, pure MG-1,1-dimethylacetal was heated in sulphuric acid solution for 1 h and fractionally distilled in a column containing glass helices under reduced pressure. Fractions were analyzed by ^1H and ^13C NMR. […] Two parts urea (8M urea, 0.5 M TrisHCl; pH8.0) were added to the solution and the sample was vortexed. HSA was precipitated by addition of two parts acetonitrile (respective to the final sample/urea mixture) and collected by centrifugation for 10′ at 13000 g. […] The HSA containing pellet was dissolved in 20 mM HCl and the protein content was determined by BCA assay. […] The amount of HSA-MG-H1 adduct was determined by LC-MS. Samples and standard curve were spiked with d3-MG-H1 (Polypeptide Group, San Diego, Calif., USA) and derivatized with Fmoc-Cl. Separation was performed on a C18 column (Hypersil Gold aQ; Thermo Scientific, USA) using a 20 min gradient of 0-100% acetonitrile (0.1% TFA) with the first five minutes diverted to waste. Analysis was carried out on an Exactive Orbitrap MS system (Thermo Scientific, USA). […] The calibration range used for the assay was 0-30 pmol.

[3] = MG scavenging in vitro (MG half-life by HPLC)
Protocol: (§1) Scavengers (400 μM) were incubated with MG (200 μM) in 0.1 M phosphate buffer, pH 7.4 at 37° C. The kinetics of the scavenging reaction was followed for 48 h. Samples were frozen in liquid nitrogen and stored at −80° C. until analysis. MG content was quantified by HPLC as described below.
(§2) In short samples were precipitated with 20% TCA at a ratio of 2/1 and vortex mixed. Internal standards ^13C MG (LC-MS/MS analysis) or 2,3-dimethylquinoxaline (HPLC analysis) and water was added and the sample mixed again. Samples were centrifuged at 13,000 g at 4° C. for 5 min and the supernatant derivatized with 1,2-diaminobenzene in the presence of sodium azide for 4 h at RT. For HPLC based MG analysis the linear gradient was 0-6% acetonitrile in 15 min. The MG-1,2-diaminobenzene adduct 2-methylquinoxaline and the internal standard 2,3-dimethylquinoxaline were detected with a UV monitor at 320 nm and eluted at 12.7 min and 14.2 min, respectively. For LC-MS/MS, samples were analyzed using an ACQUITY UPLC I equipped with a Xevo TQ-S mass spectrometer (Waters, USA). Samples were separated on BEH C18 analytical column (2.1×50 mm, 1.7 μm) fitted with pre-column (2.1×5 mm, 1.7 μm). Solvent A was water+0.1% formic and solvent B was 50% acetonitrile+0.1% formic acid and a linear gradient from 0-100% solvent B, over ten minutes was used with a flow rate of 0.2 ml/min. Injection volume was 1 μl and the column temperature was 20° C. The quinoxaline analytes were detected by electrospray positive ionization-mass spectrometric multiple-reaction monitoring (MRM). The source temperature was 150° C. and the desolvation gas temperature was 350° C. The cone gas and desolvation gas flow rates were 150 and 800 l/hr, respectively. The capillary voltage was 0.5 kV and the cone voltage was 20V. Mass transitions (parent ion >fragment ion; collision energy) and retention time were as follows: MG 145.01>77.10; 24 eV, 5.93 mins; [^13C3]-MG 148.07>77.16; 24 eV, 5.92 mins. The standard curve was in the range of 0-20 pmol and 0-1 nmol for LC MS/MS analysis and HPLC analysis, respectively.

washed human whole blood [4] = test: Hemolysis; settings: 37° C., 30 min
Protocol: (§3) Human whole blood was collected into EDTA tubes and centrifuged at 500 g at RT for 5 min. The plasma and buffy coat was removed and saline solution was added to the haematocrit containing pellet to the previous plasma level to wash the erythrocytes. The tube was gently inverted several times and centrifuged again at 500 g. This procedure was repeated until the supernatant remained clear (approx. 4 times). After the last centrifugation step the hematocrit was re-suspended in PBS to reach the original blood volume. […] Haemolysis was compared to saline solution (negative control; 0% haemolysis) and 1% Triton X100 solution (positive control; 100% haemolysis).

[5] = Serum stability of 177Lu-labelled peptides; format: in vitro ADME; settings: human serum, 37° C., after 24 h, 177Lu label
Protocol: The cyclic peptide CycK(DOTA)K(Myr)R4E and the linear peptide K(DOTA)K(Myr)R4E were labeled with ^177Lu. In short 20 nmol of peptides were incubated with ^177Lu in 0.4 M Na-acetate buffer (pH 5.0) for 10′ at 95° C. Free ^177Lu was removed by C18 solid phase extraction cartridges, the products eluted with EtOH and checked by radio-HPLC. The radiolabelled peptides were reconstituted in human serum (H4522; Sigma-Aldrich) and incubated in serum at 37° C. for the times indicated. Serum was precipitated by addition of two parts acetonitrile centrifuged for 10 min at 13000 g and the supernatant analysed by HPLC (Agilent Technologies, USA) fitted with a radio flow detector using a 10 min gradient of 0-60% acetonitrile in water (0.1% TFA).

[6] = Kinsky et al., 2016; cited from earlier work
[7] = test system: murine cardiac endothelial cells; format: cell-based; settings: mouse, 48 h, 1 mM
Protocol: Murine cardiac endothelial cells were seeded on gelatine pre-coated 96 well plates at a density of 5000 cells per well in DMEM (1 g/1 glucose, 5% FCS, 1% Pen/Strep, 1% AmpB, 1% HEPES). On the following day cells were switched to medium containing only 0.1% FCS. […] MTT ((3-(4,5-Dimethylthiazol-2-yl)-2,5-Diphenyltetrazolium Bromide)) solution (50 μl of 2 mg/ml in PBS) was added to the wells and the plate was incubated at 37° C. for 3-4 h. Medium was removed and 200 μl of DMSO was added to lyse cells and solubilise the purple formazan crystals. The plate was incubated for 1 h at room temperature on a shaker and absorbance was measured at 590 nm. Intensity for untreated cells was set to 100%.

[8] = 400 µM, pH 7.4
Protocol: as §1, §2

washed human whole blood [9] = test system: washed human whole blood
Protocol: as §3

in vivo = settings: C57/B16, mouse, ip
Protocol: Blood was collected by cardiac puncture in an aesthetised mice at time points 10′, 30′, 1 h, 4 h, 8 h and 24 h into tubes containing EDTA. Plasma was collected after centrifugation at 3000 g for 5′ at room temperature and frozen in liquid nitrogen.
Plasma was acidified with 5% TFA (5 μl/30 μl), acetonitrile (60 μl) was added and the tubes vortexed. Another 120 μl of acetonitrile were added and samples were ultrasonicated for 5 min. Samples were spun for 20 min at 13000 g. The supernatant (180 μl) was collected, mixed with 180 μl of water and freeze dried. The sample was resuspended in 30 μl of a mixture of acetonitrile/water (ratio of 1/1) containing 0.1% TFA. The samples was analysed by LC MS. Concentration was calculated by normalisation for the internal standard in combination with linear regression of a standard curve. Concentration/time-points were fitted using a one phase exponential decay model to determine the half-life of the drug.

completely excreted after [1]: ≤ 140 min
excreted almost completely within/after ([1]; iv): ≤ 20 min
Compound: N=C(N)NCCC[C@@H]1NC(=O)[C@H](CCCNC(=N)N)NC(=O)[C@H](CCCNC(=N)N)NC(=O)[C@H](CCCNC(=N)N)NC(=O)[C@H](CCCCNC(=O)CN2CCN(CC(=O)O)CCN(CC(=O)O)CCN(CC(=O)O)CC2)NC(=O)CC[C@@H](C(=O)O)NC1=O (68Ga complex, metal not drawn) [CycK(DOTA)R4E] (K(DOTA)RRRRE-OH; lactam N-6)

Compound: N=C(N)NN [Agd, aminoguanidine]
prevention of HSA-MG-H1 formation [2]: tended to be more efficient

Compound: NCCC(=O)N[C@@H](Cc1cnc[nH]1)C(=O)O [Car, carnosine]
prevention of HSA-MG-H1 formation [2]: nor did it prevent
MG scavenging (in words) [3]: neither scavenged MG

Compound: CCCCCCCCCCCCCC(=O)NCCCC[C@@H]1NC(=O)CC[C@@H](C(=O)O)NC(=O)[C@H](CCCNC(=N)N)NC(=O)[C@H](CCCNC(=N)N)NC(=O)[C@H](CCCNC(=N)N)NC(=O)[C@H](CCCNC(=N)N)NC1=O [CycK(Myr)R4E] (K(Myristoyl)RRRRE-OH; lactam N-6)
concentration above which significant hemolysis is displayed (washed human whole blood [4]): over 50 μM

SUV in the bladder [1]: lower
SUV in the kidney [1]: similar
SUV values in the heart, muscle and liver [1]: higher
accumulation in the kidneys [1]: strong accumulation in the kidneys
circulates for [1]: over 140 min
peptide remaining [5]: 86.16%
Compound: CCCCCCCCCCCCCC(=O)NCCCC[C@@H]1NC(=O)[C@H](CCCCNC(=O)CN2CCN(CC(=O)O)CCN(CC(=O)O)CCN(CC(=O)O)CC2)NC(=O)CC[C@@H](C(=O)O)NC(=O)[C@H](CCCNC(=N)N)NC(=O)[C@H](CCCNC(=N)N)NC(=O)[C@H](CCCNC(=N)N)NC(=O)[C@H](CCCNC(=N)N)NC1=O [CycK(DOTA)K(Myr)R4E] (K(DOTA)K(Myristoyl)RRRRE-OH; lactam N-7)

Compound: CN(C)C(=N)N=C(N)N [Met, metformin]
prevention of HSA-MG-H1 formation [2]: did not significantly prevent
MG-metformin adduct concentration in the urine [6]: up to 4 μM

MG t1/2 [8]: 1.1 h
half-life (in vivo): ~8 h
Compound: N=C(N)NCCC[C@@H]1NC(=O)[C@H](CCCNC(=N)N)NC(=O)[C@H](CCCNC(=N)N)NC(=O)[C@H](CCCNC(=N)N)NC(=O)[C@H](CCCCNC(=O)CCC(NC(=O)CCCCCCCCCCCCCCC(=O)O)C(=O)O)NC(=O)CC[C@@H](C(=O)O)NC1=O (stereo partly shown) [CycK(e-Hdd)R4E] (K([ξγGlu-C16 diacid])RRRRE-OH; lactam N-6)
prevention of modification of HSA with MG-H1 ([2]; FIG. 9, peptides 400 μM, HSA 400 μM, MG 200 μM): significantly prevented
viability relative to untreated cells [7]: 75%
hemolysis (in words) (washed human whole blood [9]): does not cause hemolysis even at high concentrations

Compound: Cc1ncc(CO)c(CN)c1O [Pyr, pyridoxamine]
prevention of HSA-MG-H1 formation [2]: did not significantly prevent

peptide remaining [5]: 33.4%
Compound: CCCCCCCCCCCCCC(=O)NCCCC[C@H](NC(=O)[C@@H](N)CCCCNC(=O)CN1CCN(CC(=O)O)CCN(CC(=O)O)CCN(CC(=O)O)CC1)C(=O)N[C@@H](CCCNC(=N)N)C(=O)N[C@@H](CCCNC(=N)N)C(=O)N[C@@H](CCCNC(=N)N)C(=O)N[C@@H](CCCNC(=N)N)C(=O)N[C@@H](CCC(=O)O)C(=O)O [K(DOTA)K(Myr)R4E] (H-K(DOTA)K(Myristoyl)RRRRE-OH; N-terminus assumed)

Compound: CN(CC(=O)O)C(=N)N [Cre, creatine]
MG scavenging (in words) [3]: fastest of the endogenous MG scavengers tested
